Results on 13 compounds are retold here after PubChem BioAssay (NCI).

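A five-concentration, 48-hour dose response in 96-well plates underlies each endpoint, interpolated linearly between surrounding concentrations. GI50 marks 50% less growth. TGI: concentration producing complete growth inhibition.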 Bounds are passed on as bounds.

What all share (assay): inhibition of tumour cell growth, NCI panel, 48 h
Test [1] has as its system 786-0 renal.
Test [2] deals with HCT-15 colon.
The subject of test [3] is NCI-H226 lung.
In test [4] the test system is OVCAR-3 ovarian.
Test [5] has as its system RXF 393 renal.
In test [6] the test system is SF-539 CNS.
Test [7] has as its system SK-MEL-5 melanoma.
For test [8], the system named is SN12C renal.
For test [9], the system named is SK-MEL-2 melanoma.
For test [10], the system named is MDA-MB-231 breast.

In the case of `CN(C)c1ccc(/C=C2\CNC/C(=C\c3ccc(N(C)C)cc3)C2=O)cc1`, the TGI in test [1] is 31.6 µM; in [2] it was 15.5 µM; in test [3] it was greater than 100 µM; in test [4], greater than 100 µM; in test [5], 44 µM; in test [6], greater than 100 µM. The TGI in [7] was greater than 100 µM; in test [8], 75.4 µM.

Consider `CC(=O)O[C@H]1[C@@H]2[C@@H]3[C@@H](C[C@H]1C)[C@@H](C)CO[C@@]1(C)CC/C=C(/C)C[C@@H]2O[C@@H]31`, for which the TGI in [1], in test [2], in test [3], in test [4], in test [5] and in [6] was greater than 100 µM in each case. Further, the TGI in test [9], in test [7] and in [8] was greater than 100 µM throughout.

With `Cc1c(O)c(=O)ccn1C1OC(CO)C(O)C1O` (stereo not given), the TGI in [1], in test [2], in [3], in test [4], in [5] and in test [9] was greater than 100 µM each time. The TGI in test [7] and in [8] was greater than 100 µM in each case.

For `CCOP(=O)(CC(=O)C1=C(O)C(CCCNC(=O)OC(C)(C)C)N(Cc2ccc(OC)c(OC)c2)C1=O)OCC` (stereo not given), the TGI in test [1], in test [3], in test [4], in test [5], in [6] and in [9] was greater than 100 µM in each case. Besides, the TGI in test [7] and in test [8] was greater than 100 µM in each case.

As to `Cc1ccc(S(=O)(=O)Oc2ccc3c4c(c(=O)oc3c2)CCCCC4)cc1`, the GI50 in [1] was greater than 100 µM; in test [2], 3.66 µM; in [10], greater than 100 µM; in test [3], 7.5 µM; in [6], 6.77 µM; in test [9], greater than 100 µM. Moreover, the values for the GI50 in [7] and in test [8] were 2.75 µM and greater than 100 µM, respectively. Further, the TGI in [1], in test [2], in [10], in test [3], in test [6] and in [9] was greater than 100 µM throughout. The TGI in test [7] and in [8] was greater than 100 µM throughout.

As for `CC(=O)NNc1nc(C)c(C(/C=C/c2ccc(Cl)cc2)=N\NS(=O)(=O)c2ccc(C)cc2)s1`, the TGI in test [1], in test [2], in test [3], in test [4], in test [5] and in test [6] was greater than 100 µM in each case. Moreover, the TGI in [9], in [7] and in test [8] was greater than 100 µM in each case.

Turning to `CCOc1ccccc1NC(=O)CCc1nnc2s/c(=C\CCc3ccccc3)c(=O)n12`, the TGI in test [1], in test [2], in [3], in test [4], in test [5] and in test [6] was greater than 100 µM in each case. For the same compound, the TGI in test [9], in [7] and in test [8] was greater than 100 µM in each case.

As for `O=C([O-])c1ccc2c(c1)-c1nc-2nc2[n-]c(nc3nc(nc4[n-]c(n1)c1ccc(C(=O)[O-])cc41)-c1cc(C(=O)[O-])ccc1-3)c1ccc(C(=O)[O-])cc21.[Fe+2]`, the GI50 was greater than 30.7 µM in test [1]; greater than 22.3 µM in test [2]; greater than 50 µM in test [3]; greater than 50 µM in test [4]; greater than 50 µM in [5]; greater than 29.5 µM in test [6]. For the same compound, the GI50 in test [9], in test [7] and in [8] was greater than 50 µM each time. Also, the TGI in test [1] is greater than 50 µM; in test [2], greater than 32.1 µM; in [3], greater than 50 µM; in test [4] it was greater than 50 µM; in test [5] it was greater than 50 µM; in test [6], greater than 50 µM. The TGI in test [9], in test [7] and in test [8] was greater than 50 µM in each case.

As for `FC(F)(F)c1ccc(C=NC23CC4CC(CC(C4)C2)C3)cc1`, the TGI in [1], in test [2], in [3], in test [4], in [5] and in test [6] was greater than 100 µM in each case. The TGI in test [9], in [7] and in [8] was greater than 100 µM each time.

Consider `CC1C=C(OC(=O)c2ccccc2)C(=O)C(n2cc(F)c(=O)n(C(=O)c3ccccc3)c2=O)O1` (stereo not given), for which the TGI was greater than 100 µM in test [1]; greater than 100 µM in test [2]; 56.4 µM in test [4]; 81.7 µM in test [5]; greater than 100 µM in test [6]; greater than 100 µM in [9]. The TGI in test [7] and in test [8] was greater than 100 µM in each case.

As to `COC(=O)C1=C(C(=O)OC)C23C=CC=CC24C(C(=O)OC)=C(C(=O)OC)C4C1C3` (stereo not given), the TGI in test [1], in [2], in test [4], in test [5], in [6] and in test [9] was greater than 100 µM in each case. Further, the TGI in test [7] and in test [8] was greater than 100 µM in each case.

With `N#C/C(=C/c1cccnc1)C(=O)c1ccccc1`, the TGI in test [1], in test [2], in [3], in test [4], in test [5] and in [6] was greater than 100 µM each time. Also, the TGI in [9], in test [7] and in test [8] was greater than 100 µM in each case.

For the compound `CC1CCCC(C(O)CC2CC(=O)N(c3ccccc3)C(=O)C2)C1=O` (stereo not given), the TGI in test [1], in test [3], in [4], in test [5], in test [6] and in test [8] was greater than 100 µM in each case.
